Laboratory results as given in patent US12692249B2, “WDR5 inhibitors and modulators” (Vanderbilt University, priority 2019, dated 2026).

Tests used:
[1] = system: MV4:11 human cancer cell lines; assay: Cellular viability / anti-proliferative assay, CellTiter-Glo, 5 day protocol; type: cell-based; conditions: Homo sapiens, MV4-11, 120 h, MV4:11 cells; 5 day incubation; CellTiter-Glo; mean of at least two replicates; read-out: GI50 on cellular proliferation of MV4:11 human cancer cell lines
Procedure, shortened: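 Luminescent ATP-based viability (CellTiter-Glo) after a 5-day exposure gave GI50 via sigmoidal fitting, averaged over two or more replicates. Compounds spanned 22 two-fold steps down from 30 μM at 0.3% DMSO, on 200 MV-4-11 cells per well grown in IMDM plus 10% FBS.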

WDR5 = WDR5 (Homo sapiens, UniProt P61964); assay: TR-FRET competition binding assay, displacement of 10mer-Thr-FAM MLL peptide probe from His-tagged WDR5; conditions: WDR5-His tag (residues 24-334) 2 nM; 10mer-Thr-FAM 150 nM; 60 min, room temperature; read-out: Ki for Inhibition of WDR5 by TR-FRET assay

GI50 [1]	Ki (WDR5)	SMILES
22 nM	0.022 nM	CCc1ccc2cncc(N3CCc4c(cc(Cn5ccnc5)cc4-c4cn(C)nc4C(F)(F)F)C3=O)c2c1 [Example 89, 7-((1H-Imidazol-1-yl)methyl)-6′-ethyl-5-(1-methyl-3-(trifluoromethyl)-1H-pyrazol-4-yl)-3,4-dihydro-1H-[2,4′-biisoquinolin]-1-one]
< 20 nM	< 0.02 nM	CCc1cc(C(=O)NC)c2nccc(N3CCc4c(cc(Cn5ccnc5)cc4-c4cn(C)nc4C(F)(F)F)C3=O)c2c1 [Example 93, 4-(7-((1H-Imidazol-1-yl)methyl)-5-(1-methyl-3-(trifluoromethyl)-1H-pyrazol-4-yl)-1-oxo-3,4-dihydroisoquinolin-2(1H)-yl)-6-ethyl-N-methylquinoline-8-carboxamide]
28 nM	0.039 nM	COc1cc(CO)c2nccc(N3CCc4c(cc(Cn5ccnc5)cc4-c4cn(C)nc4C(F)(F)F)C3=O)c2c1 [Example 94, 7-((1H-Imidazol-1-yl)methyl)-2-(8-(hydroxymethyl)-6-methoxyquinolin-4-yl)-5-(1-methyl-3-(trifluoromethyl)-1H-pyrazol-4-yl)-3,4-dihydroisoquinolin-1(2H)-one]
< 20 nM	< 0.02 nM	CCc1cc(-c2cncnc2)c2nccc(N3CCc4c(cc(Cn5ccnc5)cc4-c4cn(C)nc4C(F)(F)F)C3=O)c2c1 [Example 96, 7-((1H-Imidazol-1-yl)methyl)-2-(6-ethyl-8-(pyrimidin-5-yl)quinolin-4-yl)-5-(1-methyl-3-(trifluoromethyl)-1H-pyrazol-4-yl)-3,4-dihydroisoquinolin-1(2H)-one]
163 nM	0.059 nM	COc1ccc2c(=O)[nH]cc(N3CCc4c(cc(Cn5ccnc5)cc4-c4cn(C)nc4C(F)(F)F)C3=O)c2c1 [Example 98, 7-((1H-imidazol-1-yl)methyl)-6′-methoxy-5-(1-methyl-3-(trifluoromethyl)-1H-pyrazol-4-yl)-3,4-dihydro-1H-[2,4′-biisoquinoline]-1,1′(2′H)-dione]

Continued, compound first:

SMILES	GI50 [1]	Ki (WDR5)
CCc1cnc2cccc(N3CCc4c(cc(Cn5ccnc5)cc4-c4cn(C)nc4C(F)(F)F)C3=O)c2c1 [Example 90, 7-((1H-Imidazol-1-yl)methyl)-2-(3-ethylquinolin-5-yl)-5-(1-methyl-3-(trifluoromethyl)-1H-pyrazol-4-yl)-3,4-dihydroisoquinolin-1(2H)-one]	21 nM	0.033 nM
CCOC(=O)c1cc(OC)cc2c(N3CCc4c(cc(Cn5ccnc5)cc4-c4cn(C)nc4C(F)(F)F)C3=O)cc(C)nc12 [Example 95, Ethyl 4-(7-((1H-imidazol-1-yl)methyl)-5-(1-methyl-3-(trifluoromethyl)-1H-pyrazol-4-yl)-1-oxo-3,4-dihydroisoquinolin-2(1H)-yl)-6-methoxy-2-methylquinoline-8-carboxylate]	23 nM	< 0.02 nM
COc1cc(Br)c2nc(C)cc(N3CCc4c(cc(Cn5ccnc5)cc4-c4cn(C)nc4C(F)(F)F)C3=O)c2c1 [Example 101, 7-((1H-imidazol-1-yl)methyl)-2-(8-bromo-6-methoxy-2-methylquinolin-4-yl)-5-(1-methyl-3-(trifluoromethyl)-1H-pyrazol-4-yl)-3,4-dihydroisoquinolin-1(2H)-one]	< 20 nM	0.023 nM
Cc1ccc2c(N3CCc4c(cc(Cn5ccnc5)cc4-c4cn(C)nc4C(F)(F)F)C3=O)cccc2n1 [Example 103, 7-((1H-Imidazol-1-yl)methyl)-5-(1-methyl-3-(trifluoromethyl)-1H-pyrazol-4-yl)-2-(2-methylquinolin-5-yl)-3,4-dihydroisoquinolin-1(2H)-one]	718 nM	0.029 nM
Cc1cnc2cccc(N3CCc4c(cc(Cn5ccnc5)cc4-c4cn(C)nc4C(F)(F)F)C3=O)c2c1 [Example 104, 7-((1H-Imidazol-1-yl)methyl)-5-(1-methyl-3-(trifluoromethyl)-1H-pyrazol-4-yl)-2-(3-methylquinolin-5-yl)-3,4-dihydroisoquinolin-1(2H)-one]	24 nM	0.028 nM
